Results published in US20140288039A1, “LI[…] CHAIN TE[…] FOR ORAL […]” (Lipocine Inc., priority 2009, published 2014).

Assays:
[1] = Solubility of testosterone esters in lipophilic additives (castor oil, oleic acid, glyceryl mono and di linoleate), HPLC; details: room temperature, equilibrium, compared to the Undecanoate (T11) ester, values only in FIGS. 1-3
[2] = background statement, cited from earlier work
[3] = single daily dose oral administration

SMILES: CCCCCCCCCCCCCC(=O)O[C@H]1CC[C@H]2[C@@H]3CCC4=CC(=O)CC[C@]4(C)[C@H]3CC[C@]12C [Testosterone Tetradecoate (T14), Testosterone Tetradecoate]
- solubility in lipophilic additives (in words) [1]: unexpectedly disproportionate lower solubility

SMILES: CCCCCCCCCCCCC(=O)O[C@H]1CC[C@H]2[C@@H]3CCC4=CC(=O)CC[C@]4(C)[C@H]3CC[C@]12C [Testosterone Tridecoate (T13), Testosterone Tridecoate]
- solubility in lipophilic additives (in words) [1]: unexpectedly disproportionate lower solubility

SMILES: CCCCCCCCCCC(=O)O[C@H]1CC[C@H]2[C@@H]3CCC4=CC(=O)CC[C@]4(C)[C@H]3CC[C@]12C [Testosterone Undecanoate (T11), Testosterone Undecanoate]
- percentage of patients in a group whose serum T remains in the hypogonadal range for a large proportion of the dosing period [2, 3]: > 60%
- time serum T levels remain in the hypogonadal range (<300 ng/dL) in a 24-hour period [2, 3]: > 7 h

SMILES: C[C@]12CCC(=O)C=C1CC[C@@H]1[C@@H]2CC[C@@]2(C)[C@H]1CC[C@]2(C)O [methyl testosterone]
- reported adverse effects (in words) ([2]; oral use): liver damage including cholestasis, peliosis hepatitis, nodular regenerative hyperplasia, and primary hepatic tumors
